Test results taken from patent US20210137964A1, “GLYCAN COMPOSITIONS AND METHODS OF USE” (KALEIDO BIOSCIENCES, INC., priority 2016, published 2021).

Experiments:
Assay type in all cases: cell-based
Conditions in all cases: ex vivo 1% w/v fecal slurry from 12 subjects, glycan 0.5% w/v, 37° C., 18 hours, anaerobic
[1] = tested on: Enterobacteriaceae/Escherichia/Shigella microbes; experiment: Ex vivo fecal slurry assay, 16S rRNA sequencing (Example 17)
Description: (§1) An ex vivo assay was designed to determine if glycans can be used to modulate a complex community of microorganisms and if the glycans produced consistent effects across communities obtained from multiple (twelve) subjects. Fecal samples and slurries were handled in an anaerobic chamber (AS-580, Anaerobe Systems) featuring a palladium catalyst. Glycans ara100, gal100, glu60man40, glu100, glu50gal50, gal33man33ara33, man75gal25, glu33gal33man34, glu33gal33Ara33, man100, man52glu29gal19 and commercially available glycans lactulose (Alfa Aesar) and FOS (Nutraflora FOS; NOW Foods, Bloomingdale Ill.) were included in the study. The fecal sample donations obtained from 12 subjects were stored at −80° C. To prepare working stocks the fecal samples were transferred into the anaerobic chamber and allowed to thaw.

[2] = tested on: Enterobacteriales/Enterobacteriaceae microbes; experiment: Ex vivo fecal slurry assay, 16S rRNA sequencing (Example 19)
Description: as §1

[3] = tested on: Enterococcaceae/Enterococcus and/or Bifidobacteriaceae/Bifidobacterium; experiment: Ex vivo fecal slurry assay, 16S rRNA sequencing (Example 15)
Description: as §1

[4] = tested on: Ruminococcaceae/Ruminococcus microbes; experiment: Ex vivo fecal slurry assay, 16S rRNA sequencing (Example 21)
Description: as §1

[5] = tested on: Firmicutes, Proteobacteria, and/or Actinobacteria; experiment: Ex vivo fecal slurry assay, 16S rRNA sequencing (Example 11)
Description: as §1

[6] = tested on: Enterococcaceae/Enterococcus and/or Enterobacteriaceae/Escherichia/Shigella microbes; experiment: Ex vivo fecal slurry assay, 16S rRNA sequencing (Example 18)
Description: as §1

[7] = tested on: Actinobacteria and/or Coriobacteriaceae/Gordonibacter; experiment: Ex vivo fecal slurry assay, 16S rRNA sequencing (Example 13)
Description: as §1

OC[C@H]1O[C@@H](O[C@@H]2[C@@H](CO)OC(O)(CO)[C@H]2O)[C@H](O)[C@@H](O)[C@H]1O (mixture of isomers) [lactulose]
levels of Enterobacteriaceae/Escherichia/Shigella microbes [1]: decrease
levels of Enterobacteriales/Enterobacteriaceae microbes [2]: decrease
levels Enterococcaceae/Enterococcus and/or Bifidobacteriaceae/Bifidobacterium [3]: increase
levels of Ruminococcaceae/Ruminococcus microbes [4]: decrease
levels of Firmicutes, Proteobacteria, and/or Actinobacteria [5]: decrease
levels of Enterococcaceae/Enterococcus and/or Enterobacteriaceae/Escherichia/Shigella microbes [6]: decrease
levels of Actinobacteria and/or Coriobacteriaceae/Gordonibacter [7]: decrease
